pIC50: −log10 of the molar value.

The target in experiment [1] is CREBBP bromodomain (His-CREBBP (1081-1197)) (Homo sapiens (Human), UniProt Q92793). Briefly: AlphaScreen in-vitro binding assay for CREBBP. As to conditions: acetyl-histone H4 peptide. The method, then:
In order to assess bromodomain selectivity, we set up a binding assay using the bromodomain encoded by the CREBBP gene. […] Reactions were incubated at 30° C. for 35 minutes. Subsequently 4.5 μl per well detection mix (50 mM HEPES, pH 7.5, 0.005% Tween20, 0.02% BSA, 150 mM NaCl, 45 μg/ml Ni-chelate acceptor beads, 45 μg/ml streptavidin-donor beads) (Perkin Elmer)) were added. After 60 minutes incubation at room temperature, plates were measured in a Perkin Elmer EnVision multilabel reader. IC50 values were determined from percent inhibition values at different compound concentrations by non-linear regression analysis.
Test compounds were dissolved in DMSO (10 mM) and transferred into 1.4 mL flat bottom or V-shaped Matrix tubes carrying a unique 2D matrix. The stock solutions were stored at […] if not used immediately. For the test procedure the vials were defrosted and identified by a scanner whereby a working sheet was generated that guided the subsequent working steps. Compound dilutions were made in 96 well plates. This format enabled the assay of maximally 40 individual test compounds at 8 concentrations (single points) including 4 reference compounds, if desired (known BET inhibitors from the prior art, for this and other assays of the type disclosed herein). The dilution protocol included the production of “pre-dilution plates”, “master plates” and “assay plates”.
Pre-dilution plates: 96 polypropylene well plates were used as pre-dilution plates. A total of 4 pre-dilution plates were prepared including 10 test compounds each on the plate positions A1-A10, one standard compound at A11 and one DMSO control at A12. All dilution steps were done on a HamiltonSTAR robot. […] These plates were used directly for the assay which was performed in a total volume of 13.55 μL. […] Cell Growth Inhibition Assay

In experiment [2] the test system is K-562 cells. Briefly: Cell growth inhibition assay (CellTiter-Glo), K-562. As to conditions: K-562, 4 days; for GI50: half-maximal growth inhibition; for K-562 TGI: total growth inhibition. The class given is cell-based, human. The method, then:
The human leukemia cell lines MV-4-11, THP-1 and K-562 were employed to characterize the effect of BET inhibitors on cellular proliferation and viability. Cells were obtained from the American Type Culture Collection (ATCC) and cultured at 37° C. in a humidified 5% CO2 incubator in the following media: MV-4-11: DMEM high glucose (Animed #1-26F01-I), 10% FCS (Animed #2-01F26-I), 4 mM L-Glutamine (Animed #5-10K50), 1 mM Sodium Pyruvate (Animed # G03625P), 1× Penicillin-Streptomycin (Animed # F12478P); K-562: Iscove's MEM (Animed #1-28F16-I), 10% FCS (Animed #2-01F26-I), 4 mM L-Glutamine (Animed #5-10K50), 1× Penicillin-Streptomycin (Animed # F12478P); THP-1: RPMI-1640 (Animed #1-41F01-I), 10% FCS (Animed #2-01F26-I), 2 mM L-Glutamine (Animed #5-10K50), 10 mM HEPES (Animed #5-31F100), 1 mM Sodium Pyruvate (Animed # G03625P), 1× Penicillin-Streptomycin (Animed # F12478P). The AML lines MV-4-11 and THP-1 are very sensitive to BET inhibitors and show massive cell death upon BET inhibition (Zuber et al., Nature, 478 (2011), 524-8). Compound-mediated suppression of cell proliferation/viability was assessed by quantification of cellular ATP levels using the CellTiter-Glo (CTG) reagent (Promega). Briefly, cells were seeded in 20 μl fresh medium into 384-well plates, followed by addition of 5 μl medium containing compound dilutions at 5-fold their final intended concentration. Dose-response effects were assessed by 3-fold serial dilutions of the test compound, starting at 10 μM. Following incubation of the cells for 4 days at 37° C. and 5% CO2, the effect of inhibitors on cell viability was quantified following addition of 20 μl CTG and luminescence quantification (integration time: 100 ms) as per vendor manual, using a correspondingly equipped Tecan M200 multi-mode platereader (TECAN, Switzerland). For data analysis, the assay background value determined in wells containing medium, but no cells, was subtracted from all data points. To enable differentiation of cytotoxic from cytostatic compounds, the number of viable cells is assessed relative to that observed at the time of compound addition using a separate cell plate (day 0). The effect of a particular test compound concentration on cell proliferation/viability is expressed as percentage of the background- and day 0-corrected luminescence reading obtained for cells treated with vehicle only (DMSO, 0.1% final concentration), which is set as 100%, whereas that luminescence reading for wells containing medium is set as −100%. Compound concentrations leading to half-maximal (1050) and total growth inhibition (TGI) were determined using standard four parameter curve fitting.
A general note: Cellular ATP, detected with luciferase, serves as a proxy for viable cell number.

CREBBP bromodomain (His-CREBBP (1081-1197)), sequence (Q92793 1081-1197): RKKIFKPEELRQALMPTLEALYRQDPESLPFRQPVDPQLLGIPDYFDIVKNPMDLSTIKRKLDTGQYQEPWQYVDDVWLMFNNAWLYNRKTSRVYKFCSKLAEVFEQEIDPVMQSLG

For orientation: pIC50 means −log10 of the IC50, conventionally taken in molar units. Low readings indicate a high IC50, high ones a low IC50. In general, GI50 refers to the concentration that inhibits growth by half. High values mean less potent growth inhibition, low ones more potent growth inhibition. Regarding `Cc1cc(N2C(=O)c3c(C4CC4)nn(C)c3C2c2ccc(Cl)cc2)cn(C)c1=O` (stereo not shown) [Example 1, 6-(4-chlorophenyl)-3-cyclopropyl-5-(1,5-dimethyl-6-oxo-1,6-dihydropyridin-3-yl)-1-methyl-5,6-dihydropyrrolo[3,4-c]pyrazol-4(1H)-one], in experiment [1], the pIC50 is 5.85. This compound returned a GI50 in experiment [2] (Homo sapiens, K562, 96 h) of 0.141 µM. Besides, in experiment [2], the “K-562 TGI” value was above 10 µM.
As to `CNC1=C(C(=N)C2CC2)C(=O)N(c2cc(C)c(=O)n(C)c2)[C@@H]1c1ccc(Cl)cc1` [Example 2], the negative-log IC50 (pIC50) in experiment [1] is 5.92. Further, in experiment [2], it took 0.121 µM to inhibit growth by half (GI50) and the “K-562 TGI” value is above 10 µM.
For `Cc1cc(N2C(=O)c3c(C4CC4)nn(CCO)c3C2c2ccc(Cl)cc2)cn(C)c1=O` (stereo not shown) [Example 3, 6-(4-chlorophenyl)-3-cyclopropyl-5-(1,5-dimethyl-6-oxo-1,6-dihydropyridin-3-yl)-1-(2-hydroxyethyl)-5,6-dihydropyrrolo[3,4-c]pyrazol-4(1H)-one], the GI50 in experiment [2] (Homo sapiens, K562, 96 h) worked out at 0.268 µM. In addition, the “K-562 TGI” value in experiment [2] is above 10 µM.
As to `COCCn1nc(C2CC2)c2c1C(c1ccc(Cl)cc1)N(c1cc(C)c(=O)n(C)c1)C2=O` (stereo not shown) [Example 4, 6-(4-chlorophenyl)-3-cyclopropyl-5-(1,5-dimethyl-6-oxo-1,6-dihydropyridin-3-yl)-1-(2-methoxyethyl)-5,6-dihydropyrrolo[3,4-c]pyrazol-4(1H)-one], in experiment [1], the pIC50 was 5.52. The 50% growth inhibitory concentration (GI50) in experiment [2] (Homo sapiens, K562, 96 h) was found to be 0.109 µM. In addition, the “K-562 TGI” value in experiment [2] is above 10 µM.
For `Cc1cc(N2C(=O)c3c(C4CC4)nn(-c4ccnn4C)c3C2c2ccc(Cl)cc2)cn(C)c1=O` (stereo not shown) [Example 5, 6-(4-chlorophenyl)-3-cyclopropyl-5-(1,5-dimethyl-6-oxo-1,6-dihydropyridin-3-yl)-1-(1-methyl-1H-pyrazol-5-yl)-5,6-dihydropyrrolo[3,4-c]pyrazol-4(1H)-one], in that order: 5.30, 0.658 µM and above 10 µM.
In the same order, the values of `Cc1[nH]nc2c1C(=O)N(c1cc(Cl)c(=O)n(C)c1)C2c1ccc(Cl)cc1` (stereo not shown) [Example 6, 5-(5-chloro-1-methyl-6-oxo-1,6-dihydropyridin-3-yl)-6-(4-chlorophenyl)-3-methyl-5,6-dihydropyrrolo[3,4-c]pyrazol-4(2H)-one] are 5.39, 0.558 µM and above 10 µM.
In the same order, the values of `COc1ncccc1-n1nc2c(c1C)C(=O)N(c1cc(Cl)c(=O)n(C)c1)C2c1ccc(Cl)cc1` (stereo not shown) [Example 7b, 5-(5-chloro-1-methyl-6-oxo-1,6-dihydropyridin-3-yl)-6-(4-chlorophenyl)-2-(2-methoxypyridin-3-yl)-3-methyl-5,6-dihydropyrrolo[3,4-c]pyrazol-4(2H)-one] are 5.72, 0.548 µM and above 10 µM.
`COc1ncc(-n2nc(C)c3c2C(c2ccc(Cl)cc2)N(c2cc(Cl)c(=O)n(C)c2)C3=O)cn1` (stereo not shown) [Example 8a, 5-(5-chloro-1-methyl-6-oxo-1,6-dihydropyridin-3-yl)-6-(4-chlorophenyl)-1-(2-methoxypyrimidin-5-yl)-3-methyl-5,6-dihydropyrrolo[3,4-c]pyrazol-4(1H)-one] gave a pIC50 in experiment [1] below 4.43. Growth in experiment [2] (Homo sapiens, K562, 96 h) was halved (GI50) at 0.991 µM. The “K-562 TGI” value in experiment [2] was above 10 µM.
For `COc1ncc(-n2nc3c(c2C)C(=O)N(c2cc(Cl)c(=O)n(C)c2)C3c2ccc(Cl)cc2)cn1` (stereo not shown) [Example 8b, 5-(5-chloro-1-methyl-6-oxo-1,6-dihydropyridin-3-yl)-6-(4-chlorophenyl)-2-(2-methoxypyrimidin-5-yl)-3-methyl-5,6-dihydropyrrolo[3,4-c]pyrazol-4(2H)-one], in that order: 5.27, 0.999 µM and above 10 µM.
In the same order, the values of `Cc1nn(C)c2c1C(=O)N(c1cc(C)c(=O)n(C)c1)C2c1ccc(Cl)cc1` (stereo not shown) [Example 10, 6-(4-chlorophenyl)-5-(1,5-dimethyl-6-oxo-1,6-dihydropyridin-3-yl)-1,3-dimethyl-5,6-dihydropyrrolo[3,4-c]pyrazol-4(1H)-one] are 5.52, 0.336 µM and above 10 µM.
For `Cc1nn(C2CC2)c2c1C(=O)N(c1cc(C)c(=O)n(C)c1)C2c1ccc(Cl)cc1` (stereo not shown) [Example 11, 6-(4-chlorophenyl)-1-cyclopropyl-5-(1,5-dimethyl-6-oxo-1,6-dihydropyridin-3-yl)-3-methyl-5,6-dihydropyrrolo[3,4-c]pyrazol-4(1H)-one], in that order: 5.72, 0.127 µM and above 10 µM.
In experiment [1], `Cc1nn(C(C)C)c2c1C(=O)N(c1cc(C)c(=O)n(C)c1)C2c1ccc(Cl)cc1` (stereo not shown) [Example 12, 6-(4-chlorophenyl)-5-(1,5-dimethyl-6-oxo-1,6-dihydropyridin-3-yl)-1-isopropyl-3-methyl-5,6-dihydropyrrolo[3,4-c]pyrazol-4(1H)-one] gave a pIC50 of 5.85. Also, in experiment [2] (Homo sapiens, K562, 96 h), the GI50 was 0.193 µM. In addition, the “K-562 TGI” value in experiment [2] is above 10 µM.
In the same order, the values of `COc1ccc(-n2nc(C)c3c2C(c2ccc(Cl)cc2)N(c2cc(C)c(=O)n(C)c2)C3=O)cc1` (stereo not shown) [Example 13, 6-(4-chlorophenyl)-5-(1,5-dimethyl-6-oxo-1,6-dihydropyridin-3-yl)-1-(4-methoxyphenyl)-3-methyl-5,6-dihydropyrrolo[3,4-c]pyrazol-4(1H)-one] are 5.66, 0.484 µM and above 10 µM.
For `COc1ncc(-n2nc3c(c2C)C(=O)N(c2cc(C)c(=O)n(C)c2)C3c2ccc(Cl)cc2)c(OC)n1` (stereo not shown) [Example 14, 6-(4-chlorophenyl)-2-(2,4-dimethoxypyrimidin-5-yl)-5-(1,5-dimethyl-6-oxo-1,6-dihydropyridin-3-yl)-3-methyl-5,6-dihydropyrrolo[3,4-c]pyrazol-4(2H)-one], in that order: 5.29, 0.615 µM and above 10 µM.
In the same order, the values of `COc1ncccc1-c1nn(C)c2c1C(=O)N(c1cc(C)c(=O)n(C)c1)C2c1ccc(Cl)cc1` (stereo not shown) [Example 15, 6-(4-chlorophenyl)-5-(1,5-dimethyl-6-oxo-1,6-dihydropyridin-3-yl)-3-(2-methoxypyridin-3-yl)-1-methyl-5,6-dihydropyrrolo[3,4-c]pyrazol-4(1H)-one] are 6.00, 0.64 µM and above 10 µM.
Regarding `COc1ccc(-n2nc(C)c3c2C(c2ccc(Cl)cc2)N(c2cc(C)c(=O)n(C)c2)C3=O)cn1` (stereo not shown) [Example 20b, 6-(4-chlorophenyl)-5-(1,5-dimethyl-6-oxo-1,6-dihydropyridin-3-yl)-1-(6-methoxypyridin-3-yl)-3-methyl-5,6-dihydropyrrolo[3,4-c]pyrazol-4(1H)-one], in experiment [2] (Homo sapiens, K562, 96 h), the GI50 was found to be 0.239 µM. The “K-562 TGI” value in experiment [2] was above 10 µM.

(Values after patent publication US9714249B2 (Novartis AG, priority 2013, dated 2017).)
